Biological target: T1, human topoisomerase IIα (Homo sapiens, UniProt P11388)
T1 construct: gene TOP2A; recombinant wild-type, expressed in Saccharomyces cerevisiae and purified
Test: DNA cleavage assay, pBR322, agarose gel
Type: biochemical
Details: single-stranded and double-stranded DNA break induction; 300 nM enzyme, 25 mM MgCl2, 500 mM KCl, pH 7.9, 37 °C, 10 min

T1 sequence (P11388 whole entry): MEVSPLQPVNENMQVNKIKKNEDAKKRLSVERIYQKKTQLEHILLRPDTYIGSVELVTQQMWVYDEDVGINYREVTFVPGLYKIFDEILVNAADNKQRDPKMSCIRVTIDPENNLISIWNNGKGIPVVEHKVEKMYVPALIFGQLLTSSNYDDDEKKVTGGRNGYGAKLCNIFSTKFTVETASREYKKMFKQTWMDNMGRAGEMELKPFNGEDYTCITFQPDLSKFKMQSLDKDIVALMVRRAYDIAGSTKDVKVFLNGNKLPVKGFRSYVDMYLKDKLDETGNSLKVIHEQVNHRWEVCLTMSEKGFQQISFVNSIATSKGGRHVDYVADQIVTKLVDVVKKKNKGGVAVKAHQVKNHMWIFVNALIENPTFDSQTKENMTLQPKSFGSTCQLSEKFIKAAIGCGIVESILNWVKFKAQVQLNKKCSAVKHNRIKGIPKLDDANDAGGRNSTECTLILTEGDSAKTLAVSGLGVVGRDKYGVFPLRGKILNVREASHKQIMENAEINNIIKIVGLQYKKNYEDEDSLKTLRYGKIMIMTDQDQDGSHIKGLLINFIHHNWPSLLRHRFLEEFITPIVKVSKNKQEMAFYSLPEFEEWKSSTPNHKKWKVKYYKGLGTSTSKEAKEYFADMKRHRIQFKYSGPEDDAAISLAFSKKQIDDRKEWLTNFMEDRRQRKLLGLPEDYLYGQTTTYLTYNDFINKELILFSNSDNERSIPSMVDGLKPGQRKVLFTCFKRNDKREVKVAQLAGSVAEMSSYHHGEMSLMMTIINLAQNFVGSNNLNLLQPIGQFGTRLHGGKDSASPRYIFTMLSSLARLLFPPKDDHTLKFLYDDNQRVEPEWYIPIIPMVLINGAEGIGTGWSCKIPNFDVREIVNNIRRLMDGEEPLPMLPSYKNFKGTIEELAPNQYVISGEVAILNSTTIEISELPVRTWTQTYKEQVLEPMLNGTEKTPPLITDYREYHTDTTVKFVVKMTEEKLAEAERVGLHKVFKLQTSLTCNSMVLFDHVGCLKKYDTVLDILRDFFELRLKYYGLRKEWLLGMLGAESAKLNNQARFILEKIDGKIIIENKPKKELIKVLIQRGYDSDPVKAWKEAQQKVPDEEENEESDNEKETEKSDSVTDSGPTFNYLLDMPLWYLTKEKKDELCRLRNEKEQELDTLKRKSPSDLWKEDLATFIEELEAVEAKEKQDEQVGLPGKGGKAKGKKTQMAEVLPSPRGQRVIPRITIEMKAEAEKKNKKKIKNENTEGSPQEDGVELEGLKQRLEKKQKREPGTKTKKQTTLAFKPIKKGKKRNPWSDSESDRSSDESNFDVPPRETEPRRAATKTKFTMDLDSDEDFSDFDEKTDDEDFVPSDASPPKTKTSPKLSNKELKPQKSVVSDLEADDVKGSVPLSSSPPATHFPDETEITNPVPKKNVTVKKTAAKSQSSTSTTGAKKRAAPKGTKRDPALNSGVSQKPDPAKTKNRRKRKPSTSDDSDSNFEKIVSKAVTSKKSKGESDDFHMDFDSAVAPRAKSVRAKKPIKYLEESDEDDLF

Structure (SMILES): COc1ccc2nccc(CC[C@H]3OC[C@H](NC(=O)c4ccc5c(c4)NC(=O)CO5)CO3)c2c1 [OSUAB-185]
- CC50: reasonable activity against the human type II enzyme, with CC50 values in the low µM

From article PMC10419083, “Actions of a Novel Bacterial Topoisomerase Inhibitor against Neisseria gonorrhoeae Gyrase and Topoisomerase IV: Enhancement of Double-Stranded DNA Breaks” (International Journal of Molecular Sciences, 2023)
